Where two headings read alike, the source gives them in different places.
Key:
[1] = Determination of absolute bioavailability (restricted PK profile, oral and intravenous); format: in vivo; details: absolute bioavailability (F), male Sprague Dawley rats, oral 10 mg/kg AUC(0-6 h) vs intravenous 3 mg/kg AUC(0-3 h)
Procedure: To screen rapidly imidazolidines derivatives based on their absolute bioavailabity, restricted pharmacokinetic profile with only fours sampling time points after oral and intravenous route is investigated in Sprague Dawley rats as follows: each test compound is dosed orally (10 mg/kg) and intravenously (3 mg/kg) to groups of 3 male Sprague Dawley rats. Oral doses are administered as solution in EtOH/PEG400/H2O (1/79/20; v/v) by esophageal gavage (2 mg/mL; 5 mL/kg) and intravenous dose is given as solution in DMSO/PEG400/H2O (1/65/34; v/v) as a bolus in the tail vein (3 mg/mL; 1 mL/kg). Before oral dosing, animals are deprived of food (water ad libitum) for at least 16 hours before the start of the study and 6 hours after administration.
Blood is collected at the retro-orbital sinus into polypropylene tubes (Li-heparinate) at +4° C. at the following sampling-times: 0.083, 0.25, 1 and 3 h after intravenous injection and 0.25, 1, 3 and 6 hours after oral dosing. Three (3) animals are sampled per time-point; each animal being sampled four times. After centrifugation at 5000 rpm for 10 min at +4° C., plasma is collected into polypropylene tubes and kept frozen at −20° C. pending assays. Plasma samples are assayed by a LC-MS/MS method with a lower limit of quantification of 1 to 10 ng/mL depending on the compound (volume of plasma: 100 μL).
A LC-MS/MS method for quantification in heparinized plasma was developed for each test compound. Sample preparation consists of a precipitation of plasma proteins with methanol and filtration by centrifugation of supernatant on Captiva deep-well 96 0.2 μm filter plates. Water was added to methanol supernatant phase prior to analysis by liquid chromatography (Pursuit 5 C18 20×2.0 mm VARIAN, 2 μL loop, gradient Water/Methanol (90/10 to 0/100) over 1.7 min) with turboionspray tandem mass spectrometry (API4000) in negative mode using multiple reaction monitoring. The method includes 8 standard and 3 quality control levels with lower limit of quantification corresponding to first standard level.
Exposures are determined using a non compartmental model (WinNonLin 2.1) and the absolute bioavailability (F) is calculated as follows: [AUC(0-6 h) oral*3 mg/kg]/AUC(0-3 h) IV 10 mg/kg] and expressed in percentage.

[2] = target: T1, human androgen receptor (hAR) (Homo sapiens, UniProt P10275); assay: Functional response (transactivation) test in HALP2 cells (HeLa stably expressing hAR and ARE-luciferase reporter); format: cell-based; details: for Emax: HeLa, read-out: % effect relative to DHT (100%)
T1 construct: expressed in transfected cells
T1 sequence (P10275 1-920): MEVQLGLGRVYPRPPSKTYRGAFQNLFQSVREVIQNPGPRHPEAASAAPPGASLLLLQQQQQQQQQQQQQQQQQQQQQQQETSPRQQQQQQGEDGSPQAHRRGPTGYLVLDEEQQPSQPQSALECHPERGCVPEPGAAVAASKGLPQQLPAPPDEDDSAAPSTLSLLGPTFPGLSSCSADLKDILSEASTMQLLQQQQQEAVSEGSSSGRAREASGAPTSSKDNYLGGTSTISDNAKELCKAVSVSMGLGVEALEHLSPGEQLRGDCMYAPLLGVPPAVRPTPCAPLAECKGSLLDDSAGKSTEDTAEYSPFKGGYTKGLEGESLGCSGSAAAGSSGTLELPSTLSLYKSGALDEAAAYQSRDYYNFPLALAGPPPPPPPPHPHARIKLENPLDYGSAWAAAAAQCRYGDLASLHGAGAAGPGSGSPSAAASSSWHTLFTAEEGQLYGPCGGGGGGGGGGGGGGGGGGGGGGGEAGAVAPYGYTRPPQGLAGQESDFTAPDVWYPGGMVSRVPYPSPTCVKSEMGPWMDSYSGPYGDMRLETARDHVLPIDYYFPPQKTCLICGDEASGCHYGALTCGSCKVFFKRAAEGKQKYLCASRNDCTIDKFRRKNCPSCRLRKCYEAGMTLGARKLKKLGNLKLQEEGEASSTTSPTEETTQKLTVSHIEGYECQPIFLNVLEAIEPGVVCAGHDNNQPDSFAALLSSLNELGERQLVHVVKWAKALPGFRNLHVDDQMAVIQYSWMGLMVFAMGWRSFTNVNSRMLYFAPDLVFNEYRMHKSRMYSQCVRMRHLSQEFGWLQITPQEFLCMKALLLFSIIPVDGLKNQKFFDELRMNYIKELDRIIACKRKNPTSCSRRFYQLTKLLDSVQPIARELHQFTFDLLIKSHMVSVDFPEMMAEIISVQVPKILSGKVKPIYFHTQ
From the text: This test constitutes a method of identifying pure or partial agonists which mimic the effects of natural hormones, such as DHT (dihydrotestosterone) in the present case or, on the other hand, antagonists which inhibit them.
For this transactivation test, plasmids encoding a reporter gene and the human androgen receptor (hAR) are introduced together by transfection into the HeLa cell line. The reporter plasmid contains luciferase cDNA under the control of the AREs contained in the promoter sequences of the probasin gene (3xpbAREminicoll-luciferase/pGL3-puro). The expression of the reporter gene constitutes an indication of the transcriptional activity of hAR. It also encodes a protein allowing the cells expressing it to resist a treatment with puromycin. The plasmid encoding hAR contains the cDNA of hAR under the control of the Cytomegalovirus (CMV) promoter. It also encodes a protein allowing the cells expressing it to resist a treatment with neomycin. The treatment of cells with increasing amounts of potentially agonistic compounds will increase the expression of the reporter gene. To detect antagonists, on the other hand, increasing doses of test compounds are tested in the presence of […] of DHT. The expression of the reporter gene, which is constant for each dose of DHT, decreases when the concentration of the test compounds increases.
The functional response test is conducted on 96-well plates. The HALP2 cells are seeded (20,000 cells per well) in culture medium (DMEM with phenol red, 1% de Pen-Strep, 1% of non-essential amino acids, 10% of fetal bovine serum, 400 μg/mL Geneticin and 0.150 puromycin) on day 1. After 24 hours incubating at 37° C., 5% CO2, high humidity (day 2) the medium is removed and refreshed with test medium (DMEM without phenol red supplemented, 1% de Pen-Strep, 1% of non-essential amino acids and 5% of desteroidised foetal bovine serum). After another 24 hours incubating at 37° C., 5% CO2, high humidity (day 3), the medium is renewed once more before the phase of stimulation.
The cells are placed in contact with the compounds for 24 hours at 37° C., 5% CO2, high humidity. On day 4 the medium is then removed and the luciferase activity reading reagent is placed in contact with the cells in accordance with the manufacturer's instructions (SteadyLite, Perkin-Elmer). The luminescence produced is detected on an Envision reader (Perkin-Elmer). […]
The determination of the relative agonism/antagonism of a compound is obtained by comparing the maximal activation obtained with said compound and the activation obtained with DHT alone (100%).

[3] = test system: castrated immature young rats; assay: Adapted model of Hershberger's test; format: in vivo, Sprague Dawley rats; details: Rattus norvegicus, po, 96 h, ORX control = 0%, SHAM control = 100%, per os daily for 4 days, dose tested 10 mg/kg
Procedure: The selective modulating activity of the androgen receptor is tested in a model of castrated immature young rats. This model, which is widely recognised for evaluating the anabolic effects of androgen compounds on the muscles and on the prostate, has been described by Hershberger et al. 1953 Proc. Soc. Expt. Biol. Med. 83:175.
The method is based on the measurement of the well-known effects of androgens on the growth of the muscles and the accessory male sex organs in animals, and also in men. The consequences of castration appear in the form of a rapid involution and atrophy of the prostate and the seminal vesicles and of the anus-lifting muscle (levator ani). This effect may be completely compensated by an exogeneous administration of androgen, in particular of testosterone. The model is thus used to determine the capacity of the tested molecules to maintain the weight of the accessory sex and muscle organs in immature castrated rats, and therefore their androgenic efficacy.
Immature young Sprague Dawley rats (4 to 5 weeks old) weighing approximately 140-160 g (Charles River, Les Oncins, FRANCE) are distributed randomly in various groups and are kept in an environment at 22±2° C. with an alternating day/night cycle of 12 hours and ad libitum access to food and drink.
On day 0 (seven days before commencement of the first treatment) the rats are weighed individually then anaesthetised with an intraperitoneal dose of Ketamine/xylazine (85/15 mg/kg, approximately 2 ml/kg). Each animal is then placed on a sterile field and the abdomen and the scrotum are disinfected with Betadine and 70% alcohol. In the case of the orchidectomised control animals (ORX), the testicles are removed via an incision in the middle of the scrotum. A sterile suture is then made to ligature the supra-testicular portion of the tissue prior to surgical section of each testicle. The groups of animals to be treated by the tested compounds are operated on in an identical manner. In the case of the intact control animals (SHAM), the testicles are similarly extracted and reintroduced delicately to their original location. The site of surgical intervention is then sutured using sterile suture thread, and the site is disinfected again by application of Betadine. Each animal is then kept under a sterile pad until it awoke, before being returned to its cage. The animals are kept in an environment at 22±2° C. with an alternating day/night cycle of 12 hours and ad libitum access to food and drink. The animals are treated with the molecules to be tested from post-surgery day 7 and until day 10 preceding sacrifice (day 11).
The rats are split into groups and treated daily from day 7 to day 10 under the conditions defined below: • 1. SHAM control group: Vehicle (PEG400/DMSO/water; 79/1/20) administered per os. • 2. ORX control group: Vehicle (PEG400/DMSO/water; 79/1/20) administered per os. • 3. Treated ORX group: The tested compounds are administered individually per os in suspension in the vehicle described above, in a dose of 10 mg/kg.
After treatment for 4 successive days, the animals are decapitated using a guillotine. The levator ani and the ventral prostate are removed and weighed individually. For comparing inter-experimental data, the weight of each organ is standardised and expressed in milligrammes per 100 g of the weight of the animal (W). For each organ, the average of the standardised weights of the ORX control group is fixed by definition at 0% and the average of the standardised weights of the SHAM control group is fixed by definition at 100%. The efficacy of each product is expressed as a percentage and calculated using the following formula: (Wtreated−WORX)/(WSHAM−WORX)×100
A subsequent ANOVA test is used for statistical analysis to identify the differences between groups.

[4] = male, Sprague-Dawley, rat, plasma, po, 10 mg/kg, read-out: Bioavailability
[5] = maximal activation by the compound compared with DHT alone (100%), HALP2 cells
[6] = agonism: concentration inducing 50% of the maximum agonistic effect of the tested compound, HALP2 cells, 24 hours, read-out: EC50

SMILES | bioavailability [1, 4] | Emax [2, 5] | bioavailability [1] | EC50 [2, 6] | also measured
CCC(O)C1(c2ccccc2)C(=O)N(c2ccc(C#N)c(C(F)(F)F)c2)C(=O)N1C (single isomer, unassigned) [Example 3, 4-[2,5-Dioxo-4-(1-hydroxypropyl)-3-methyl-4-phenylimidazolidin-1-yl]-2-trifluoromethylbenzonitrile] | 50 to 90% | – | – | – | –
CC(O)C1(c2ccccc2)C(=O)N(c2ccc(C#N)c(C(F)(F)F)c2)C(=O)N1C (single isomer, unassigned) [Example 4, 4-[2,5-Dioxo-4-(1-hydroxyethyl)-3-methyl-4-phenylimidazolidin-1-yl]-2-trifluoromethylbenzonitrile] | – | 0 to 5% | # (0-49%) | – | –
CC(O)C1(c2ccccc2)C(=O)N(c2ccc(C#N)c(C(F)(F)F)c2)C(=O)N1C (single isomer, unassigned) [Example 5, 4-[2,5-Dioxo-4-(1-hydroxyethyl)-3-methyl-4-phenylimidazolidin-1-yl]-2-trifluoromethylbenzonitrile] | – | – | ### (>90%:) | – | % effect relative to DHT (100%) [2, 5]: § (0-5%)
CN1C(=O)N(c2ccc(C#N)c(C(F)(F)F)c2)C(=O)C1(CO)c1ccccc1 (stereo not drawn) [Example 1, 4-[2,5-Dioxo-4-(hydroxymethyl)-3-methyl-4-phenylimidazolidin-1-yl]-2-trifluoromethylbenzonitrile] | 50 to 90% | 21 to 40% | – | 0.01 to 10 nM | –
C#CCN1C(=O)N(c2ccc(C#N)c(C(F)(F)F)c2)C(=O)C1(CO)c1ccc(F)cc1 (stereo not drawn) [Example 8, 4-[2,5-Dioxo-4-(4-fluorophenyl)-4-hydroxymethyl-3-(2-propynyl)imidazolidin-1-yl]-2-trifluoromethylbenzonitrile] | > 90% | – | – | – | EC50 [2]: 101 to 500 nM; Emax [2]: 6 to 20%
Cc1cccc(C2(CO)C(=O)N(c3ccc(C#N)c(C(F)(F)F)c3)C(=O)N2C)c1 (stereo not drawn) [Example 21, 4-[2,5-Dioxo-4-hydroxymethyl-3-methyl-4-(3-methylphenyl)imidazolidin-1-yl)-2-trifluoromethylbenzonitrile] | – | 6 to 20% | – | 501 to 1000 nM | response vs control in vivo at 10 mg/kg ([3]; levator ani weight, read-out: Anabolic activity %): 0.5 to 25%; response vs control in vivo at 10 mg/kg ([3]; ventral prostate weight, read-out: Androgenic activity % (Prostate)): 0%

Source: patent publication US8383608B2, “Imidazolidine compounds as androgen receptor modulators” (Dart Therapeutics LLC, priority 2008, dated 2013)
